Reference: patent US20230364049A1, “COMBINATION OF P2Y6 INHIBITORS AND IMMUNE CHECKPOINT INHIBITORS” (VIB VZW, priority 2020, published 2023)

Assays:
[1] = test system: murine bone marrow derived macrophages (BMDMs); assay: BMDM migration assay (Transwell, UDP as chemoattractant); assay type: cell-based; settings: 10 μM MRS2578, 100 μM UDP in bottom chamber, 6 h, FIG. 4
Experimental: In the macrophage migration assays, 1×10^5 murine BMDMs were seeded on […] polycarbonate membranes (Transwell; Costar) with or without 10 μM MRS2578. The bottom chambers contained DMEM with or without 100 μM UDP, 100 μM Uridine (Sigma-Aldrich) or 100 μM Cytidine (Sigma-Aldrich), or alternatively, conditioned media from NT or CDA KD cells.
After 6 h incubation, the cells were removed from the top of each membrane with a cotton stick and migrated cells were fixed in 4% PFA, washed in PBS, stained with crystal violet (2.5 g/L) and Hoechst, and mounted on glass slides with ProLong Gold mounting medium without DAPI. Images were acquired with Olympus BX41 microscope and CellSense imaging software.

Panc02 tumors = assay: Subcutaneously implanted Panc02 tumor model, with FACS analysis of tumors; assay type: in vivo, mice
Experimental: 4×10^6 Panc02 cells were injected subcutaneously (s.c.) in the right flank of the mouse in a final suspension of 200 μI PBS. Tumor volumes were measured at least three times per week with a calliper and calculated using the formula: Volume (mm^3): ((Width(mm))^2×Length(mm))/2. 0.1×10^6 KPC1245 cells were injected orthotopically into the head of the pancreas in 20 μl of PBS.
(§1) Mice were randomized and treated, at indicated time points, intraperitoneally (i.p.) with 10 mg/kg of α-PD-1 (BioXcell) or control IgG from rat serum (Sigma-Aldrich), 3 mg/kg/day MRS2578 (Selleck Chemicals) or control vehicle. At the end stage, tumor weight was measured.
(§2) Mice were monitored and weighed continuously during the experiments. Mice showing symptoms of illness, that lost 20% of initial body weight, peritoneal leakage or with ulcerated tumors were sacrificed and excluded from the experiments. At the end stage, tumor weight was registered and samples were collected for histological examination, metabolomics and/or FACS/sorter analysis.
Tumor-bearing mice were sacrificed by cervical dislocation and perfused with saline to remove circulating immune cells. Tumors were harvested and minced in αMEM medium (Lonza) supplemented with 5% FBS, 1% Pen/Strep, 50 μM β-mercaptoethanol (Gibco), 5U/mL DNase I (Qiagen), 0.85 mg/mL Collagenase V (Collagenase from Clostridium histolyticum, Sigma-Aldrich), 1.25 mg/mL Collagenase D (Collagenase from Clostridium histolyticum, Roche) and 1 mg/mL Dispase II (Gibco) and incubated for 30 minutes at 37° C. The digested tissue was filtered using a 70 μm pore sized mesh strainer and cells were centrifuged 5 minutes at 300 xg. The samples were resuspended in Red Blood Cell Lysing Buffer Hybri-Max™ (Sigma-Aldrich) for 30 seconds, inactivated with FACS buffer (PBS containing 2% FBS and 2 mM EDTA) and centrifuged. The cell pellets were resuspended in FACS buffer and filtered with a 40 μm pore sized mesh strainer. Cells were resuspended in FACS buffer and for the intracellular measurement of interferon γ (IFN-γ) and granzyme B (GZMB), single-cell suspensions were culture in RPMI medium supplemented with 10% FBS, 1% glutamine, 1% Pen/Strep and stimulated with phorbol 12-myristate 13-acetate (PMA)/ionomycin Cell Stimulation Cocktail (eBioscience™, 1:500) in the presence of Brefeldin A (BioLegend®, 1:1000) or Monensin (eBioscience™, 1:1000) for 4 h at 37° C. Cells were then incubated for 15 minutes at 4° C. with Mouse BD Fc Block purified Rat Anti-Mouse CD16/CD32 mAb (BD Pharmingen™) and stained with the following antibodies for 30 minutes at 4° C.: Fixable viability dye (eFluor™ 506, eBioscience™), anti-CD45 (30-F11, APC-Cy7 or FITC, BioLegend®), anti-CD11b (M1/70, PerCP-Cy5.5, BioLegend®; eFluor™ 450, eBioscience™; or PE, BD Biosciences), anti-TCR-13 chain (H57-597, BV421, BD Biosciences), anti-CD4 (RM4-5, PE, BioLegend®), anti-CD8 (53-6.7, PE-Cy7, eBioscience™ or 53-6.7, APC-Cy7, BioLegend®), anti-CD69 (H1.2F3, APC, eBioscience™), anti-F4/80 (BM8, Alexa Fluor 488, eBioscience™; PerCP-Cy5.5, BioLegend®; or BV421, BioLegend®), anti-IFN-γ (XMG1.2, PE-Cy7, eBioscience™), anti-GZMB (GB11, Alexa Fluor 647, BioLegend®), anti-MHC-II (M5/114.15.2, APC, eBioscience™; or PerCP-eFluor 710, eBioscience™), anti-CD11c (N418, PE-Cy7, eBioscience™), anti-CD206 (MR5D3, Alexa Fluor 647, Bio-Rad), anti-Ly-6G (1A8, PE, BD Pharmingen™) anti-CD335 (NKp46) (29A1.4, APC, BioLegend®), anti-Foxp3 (FJK-16s, APC, eBioscience™) and anti-CD25 (PC61.5, PE-Cy7, eBioscience™). Cells were subsequently washed and resuspended in cold FACS buffer before FACS analysis or flow sorting by a FACS Verse or FACS Aria (BD Biosciences), respectively.

[2] = Tolerability / body weight of treated Panc02 tumor-bearing mice; assay type: in vivo; settings: MRS2578 3 mg/kg/day i.p.; FIG. 7
Experimental: as §1, §2

[3] = Panc02 tumors, MRS2578 vs vehicle, FIG. 6

Structure (SMILES): S=C=Nc1cccc(NC(=S)NCCCCNC(=S)Nc2cccc(N=C=S)c2)c1 [MRS2578, N,N-1,4-butanediylbis-N-(3-isothiocyanatophenyl) thiourea]
- Migration of BMDMs towards UDP [1]: abrogated
- Migration of BMDMs towards UDP ([1]; listed as MRS 2578): specifically inhibited
- Tumor volume (Panc02 tumors; MRS2578 3 mg/kg/day i.p. combined to α-PD-1 therapy (10 mg/kg i.p.), sc Panc02, FIG. 5): decrease
- Tumor weight (Panc02 tumors; MRS2578 3 mg/kg/day i.p. combined to α-PD-1 therapy (10 mg/kg i.p.), sc Panc02, end stage, FIG. 5): decrease
- Infiltration of M2 polarized TAMs into Panc02 tumors (Panc02 tumors; Panc02 tumors, MRS2578): reduced infiltration
- Infiltration of tumor-associated macrophages (TAMs) into Panc02 tumors (Panc02 tumors; Panc02 tumors, MRS2578): Reduced infiltration
- Activation of CD8+ T cells in the tumors (GZMB, FACS) (Panc02 tumors; [3]): more activated
- M2 polarization of macrophages (CD206 expression by FACS) (Panc02 tumors; [3]): reduction of M2 polarization
- Harmful effect on mice (evolution of body weight) [2]: no harmful effect
